Results published in patent US7285618B1, “Polypeptides having neutrophil stimulating activity” (Japan Tobacco Inc., priority 2000, dated 2007).
pEC50: −log10 of the molar value. Read-outs that look alike come from different tables or passages of the source. Where no end group is shown, it is not given here.

What was measured:
Assay type in all cases: cell-based, human
[1] = system: differentiated HL60 cells; assay: Intracellular Ca2+ concentration (fura-2), differentiated HL60 cells; conditions: for increase of intracellular Ca2+ concentration in the absence of extracellular Ca2+: absence of Ca2+ (−) versus presence (+); for increase in intracellular Ca2+ concentration upon stimulation after PTX treatment: cells treated with 50 ng/ml PTX for 16 hours; for intracellular Ca2+ concentration: differentiated HL60 cells (+); for intracellular Ca2+ concentration with or without extracellular Ca2+: extracellular Ca2+ present or not
Experimental: (§1) The differentiated HL60 cells or undifferentiated HL60 cells were washed twice with a Hepes-Na solution (140 mM NaCl, 4 mM KCl, 1 mM NaH2PO4, 1 mM MgCl2, 1.25 mM CaCl2, 5 mM Hepes, 11 mM glucose, 0.2% BSA, pH 7.4). Then, Ca^2+ sensitive fluorescence reagent, fura-2/AM, was added to the cell suspension (4 ml: final concentration, 4 μM). The reaction mixture was then shaken gently at room temperature for 60 minutes, shielded from light in order to incorporate fura-2 into the HL60 cells. Subsequently, the cells were washed twice with a Hepes-Na solution and a cell suspension was prepared at a final cell density of 1.0×10^6 cells/ml. One milliliter of the cell suspension was put into reaction cuvettes and stimulated with various samples under stirring at 30° C. Ratios of fluorescence intensity at 500 nm (F) for an excitation wavelength at 340 nm to that at 380 nm were measured with a fluorimeter (CAF-100, Japan Spectroscopic Co., Ltd.) and [Ca^2+]i was calculated following the formula: [Ca^2+]i(nM)=K×{(F−Fmin)/(Fmax−F)}×A/B, wherein
(§2) Fmax: a ratio of fluorescence intensity at 500 nm for an excitation wavelength at 340 nm to that at 380 nm after all cells were solubilized with 0.1% Triton X-100;
(§3) Fmin: a ratio of fluorescence intensity at 500-nm for an excitation wavelength at 340 nm to that at 380 nm after the whole calcium was chelated with 4 mM EGTA;
(§4) A: fluorescence intensity at 500-nm for an excitation wavelength at 380 nm, when all the calcium was chelated with EGTA;
(§5) B: fluorescence intensity at 500-nm for an excitation wavelength at 380 nm, when all cells were solubilized with Triton X-100;
(§6) K: 224 (nM) (the dissociation constant of fura-2).

[2] = system: differentiated HL60 cells; assay: Migration promoting activity (Chemotaxis Cells), differentiated HL60 cells
Experimental: The migration promoting activity of each of the polypeptides of interest was measured using Chemotaxis Cells (Kurabo) as follows: The differentiated HL60 cells or undifferentiated HL60 cells were washed three times with ice-cooled HBHS and a cell suspension was prepared at a cell density of 4×10^6 cells/ml. The cell suspension was incubated at 37° C. for 10 minutes; thereafter, 500 μl of the cell suspension was transferred to Chemotaxis Cells (2×10^6 cells/Cell), which were put on a micro-well plate filled with pre-heated (37° C.) HBHS containing 1 ml of polypeptide and incubation was performed at 37° C. for 1 hour. Then, the Chemotaxis Cells were removed from the plate and the number of cells that had migrated in each well was counted.
Migration promoting activity was expressed by a chemotaxis index, or the number of cells that migrated upon stimulation was divided by the number of cells migrated without stimuli.
The activity of the human homologues of COSP-1 and fCyt b (1-15) for promoting β-HA secretion and migration promoting activities were measured following the methods described in Examples 4 and 5, respectively. The activity for β-HA secretion was expressed by the percentage for the maximum amount of secretion upon stimulation with 10 μM of fMLP, whereas the activity for migration was expressed by a chemotaxis index, i.e., the ratio of the number of stimulated migrating cells to that of unstimulated migrating cells.

[3] = system: differentiated HL60 cells; conditions: for secretion of β-HA upon stimulation after PTX treatment: cells treated with 50 ng/ml PTX for 16 hours; for Percentage of maximum secretion activity (%/control): control = β-HA released upon 10 μM fMLP; for β-HA secretion from differentiated HL60 cells (%/total): total = β-HA released with 0.05% Triton X-100
Experimental: a. Cultivation of HL60 Cells and Induction to the Differentiated Neutrophil-Like Cells For cultivation, heat-inactivated FCS (final concentration; 10%), streptomycin (final concentration; 100 mg/l), penicillin G (final concentration of 10^5 units/l) and RPMI-1640 culture solution containing 10 mM Hepes (pH 7.4) were used. Cells were cultivated at a cell density of 2×10^5-1.5×10^6 cells/ml in a plastic flask (80 cm^2, 260 ml, Nunc) at 37° C. under stationary conditions with a 5% of CO2 concentration and a 100% of humidity. […] c. […] Measuring β-HA Enzyme Activity The amount of β-HA secreted into the reaction supernatant was determined by measuring the absorbance at 415 nm of p-nitrophenol that was generated by an enzymatic reaction involving p-nitrophenyl N-acetyl-β-D-glucosaminide as a substrate. To be specific, 90 μl of the reaction supernatant was transferred to a 96-well Immuno plate (Nunc) and 60 μl of a substrate solution (10 mM p-nitrophenyl N-acetyl-β-D-glucosaminide/40 mM citrate, 70 mM Na2HPO4, pH 4.5) was added to initiate an enzymatic reaction. Following a 1-hr reaction at 37° C., 100 μl of a reaction quencher (400 mM glycine, pH 10.7) was added to stop the reaction and the absorbance at 415 nm was measured. As a control, cells were treated with Triton X-100 at a final concentration of 0.05% and the amount of β-HA in the supernatant was measured. As another control, the amount of β-HA secreted from cells upon stimulation with fMLP at a final concentration of 10 μM was measured.

[4] = system: HL60 cells
[5] = system: HL60 cells; remark: listed apart in the source
Experimental: Cells were cultivated following the method as described in Example 4, except that the RPMI-1640 medium containing contained 15% of FCS, and that in order to differentiate the HL60 cells into neutrophil-like cells, a cell suspension was prepared such that the cell density in the flask would be 0.5×10^6 cells/ml at the time of addition of db-cAMP (final concentration, 0.5 mM). The β-HA secretion promoting activities of COSP-1 and fMLP were measured 24, 48 and 72 hours after the differentiation.

[6] = system: undifferentiated HL60 cells; assay: Intracellular Ca2+ concentration (fura-2), undifferentiated HL60 cells
Experimental: as §1, §2, §3, §4, §5, §6

Row | Compound | increase of intracellular Ca2+ concentration in the absence of extracellular Ca2+ [1] | increase in intracellular Ca2+ concentration upon stimulation after PTX treatment [1] | intracellular Ca2+ concentration [1] | intracellular Ca2+ concentration with or without extracellular Ca2+ [1] | activity for migration at the concentrations where β-HA secretion was observed ([2]; Example 12) | concentrations of migration activity relative to the concentration for β-HA secretion ([2]; Example 12) | secretion of β-HA upon stimulation after PTX treatment [3] | Percentage of maximum secretion activity (%/control) [3] [%/control] | β-HA secretion from differentiated HL60 cells (%/total) [3] [%/total] | β-HA secretion to the undifferentiated HL60 cells [4] | pEC50 ([5]; 24 h) | pEC50 ([5]; 48 h) | pEC50 ([5]; 72 h) | Max. (%/total), maximum secretion on average ([5]; Differentiation 24 hr) [%/total] | Max. (%/total), maximum secretion on average ([5]; Differentiation 48 hr) [%/total] | Max. (%/total), maximum secretion on average ([5]; Differentiation 72 hr) [%/total] | intracellular Ca2+ concentration [6] | migration promoting (attracting) activity [2] | promoted secretion of β-HA under Boc-MLF treatment ([3]; Boc-MLF treatment, data not shown)
1 | CSCC[C@H](NC=O)C(=O)N[C@@H](CC(C)C)C(=O)N[C@@H](Cc1ccccc1)C(=O)O [fMLP, formyl methionyl-leucyl-phenylalanine, reference compound] | reduced | almost completely inhibited | increased | increased irrespective of whether extracellular Ca^2+ was present or not | also observed | observed at concentrations lower | almost completely inhibited | 100 | 67.4 | Neither COSP-1 nor fMLP caused the β-HA secretion | 6.96 | 7.66 | 8.03 | 17.4 | 40.6 | 48.4 | did not increase | – | –
2 | LSFLIPAGWVLSHLDHYKRSSAA-OH [COSP-1] | reduced | almost completely inhibited | increased | increased irrespective of whether extracellular Ca^2+ was present or not | – | – | almost completely inhibited | 93.6 ± 2.8 | 63.1 | Neither COSP-1 nor fMLP caused the β-HA secretion | 5.92 | 6.35 | 6.57 | 15.6 | 35.7 | 45.3 | did not increase | attracting activity | significantly suppressed
